Results on eight compounds are retold here after publication PMC7508416 (Chemical research in toxicology, 2020).

Where two headings read alike, the source gives them in different places. Marks after values point to notes of the source that are not given here.

On the set-up of data set [1]: species or system human. The following applies: pooled urine of children aged 3-6; tentative, exact mass match.
The conditions of data set [2]: gavage of a technical mixture containing 35% 2IPPDPP; cited from earlier work.
For data set [3] the following is noted: linear regression.
For data set [4] the following is noted: for % Depletion: after 60 min (Eq. 1); for Percentage of Initial Parent Administration (Mean ± Std Dev): Total: parents plus quantified metabolites; for Initial parent mass unaccounted for after quantifying suspected metabolites: metabolites with authentic standards available.
For data set [5] the following is noted: cited from earlier work.
Where [6] appears, read: 1 μM, s9 & sulfatase & glucuronidase.
Setting [7] is: 10 μM, s9 & sulfatase & glucuronidase.

For the compound “2-phenyl-4H,−4,4-dimethyl-1,1,3,2 -benzodioxapho-sphoran-2-oxide”, the “Detection in human urine samples (number of samples out of 9)” value in data set [1] was 1. Also, the “Detection in rabbit bile” value in data set [2] was “detected”.
Take `CC(C)c1ccccc1OP(=O)(Oc1ccccc1)Oc1ccccc1` [2IPPDPP, 2-isopropylphenyl diphenyl phosphate]: the “Depletion rate, slope, first-order kinetics” value in data set [3] (1 μM dose) was −0.010 ln[nmol]/min/mg protein; in data set [3] (10 μM dose) it was −0.0048 ln[nmol]/min/mg protein. Also, the “Depletion rate, slope, zero-order kinetics” value was −0.013 ^* nmol/min/mg protein in data set [3] (1 μM dose) and −0.092 nmol/min/mg protein in data set [3] (10 μM dose). For the same compound, the “Percentage of Initial Parent Administration (Mean ± Std Dev): parent compound” value (“Percentage … parent compound” for short) in data set [4] (1 μM, Abiotic Control) turned out to be 105 ± 20%; in data set [4] (1 μM, Heat-inactivated s9), 101 ± 8%; in data set [4] (1 μM, s9), 56 ± 10%; in data set [4] (1 μM, s9 & glucuronidase), 65 ± 3%; in data set [4] (1 μM, s9 & sulfatase), 64 ± 6%; in data set [4] (setting [6]) it was 67 ± 4%. In addition, the “Percentage … parent compound” value came out at 100 ± 13% in data set [4] (1 μM, unprocessed spike); 103 ± 10% in data set [4] (10 μM, Abiotic Control); 103 ± 11% in data set [4] (10 μM, Heat-inactivated s9); 77 ± 5% in data set [4] (10 μM, s9); 82 ± 3% in data set [4] (10 μM, s9 & glucuronidase); 84 ± 4% in data set [4] (setting [7]). The “Percentage … parent compound” value in data set [4] (10 μM, unprocessed spike) is given as 100 ± 9%. Also, the “% Depletion” value was 0% in data set [4] (1 μM, Abiotic Control); 0% in data set [4] (1 μM, Heat-inactivated s9); 35% in data set [4] (1 μM, s9 & glucuronidase); 33% in data set [4] (setting [6]); 36% in data set [4] (1 μM, s9 & sulfatase); 44% in data set [4] (1 μM, s9). The “% Depletion” value in data set [4] (10 μM, Abiotic Control) came out at 0%; in data set [4] (10 μM, Heat-inactivated s9), 0%; in data set [4] (10 μM, s9 & glucuronidase), 18%; in data set [4] (setting [7]) it was 16%; in data set [4] (10 μM, s9 & sulfatase), 20%; in data set [4] (10 μM, s9) it was 23%. For the same compound, in data set [4] (1 μM, unprocessed spike), the “Percentage of Initial Parent Administration (Mean ± Std Dev): Total” value (shortened to “Percentage … Total”) amounted to 100 ± 13%. The “Initial parent mass unaccounted for after quantifying suspected metabolites” value in data set [4] is reported as “approximately 20%”.
`CC(C)c1ccc(OP(=O)(Oc2ccccc2)Oc2ccccc2)cc1` [4IPPDPP, 4-isopropylphenyl diphenyl phosphate]: the “Depletion rate, slope, first-order kinetics” value in data set [3] (1 μM dose) is −0.015 ln[nmol]/min/mg protein; in data set [3] (10 μM dose), −0.0034 ln[nmol]/min/mg protein. Moreover, the “Depletion rate, slope, zero-order kinetics” value was −0.042 nmol/min/mg protein in data set [3] (1 μM dose) and −0.097 nmol/min/mg protein in data set [3] (10 μM dose). In addition, the “Percentage … parent compound” value in data set [4] (1 μM, Abiotic Control) came to 108 ± 23%; in data set [4] (1 μM, Heat-inactivated s9), 82 ± 5%; in data set [4] (1 μM, s9), 27 ± 4%; in data set [4] (1 μM, s9 & glucuronidase) it was 27 ± 1%; in data set [4] (1 μM, s9 & sulfatase), 29 ± 3%; in data set [4] (setting [6]), 32 ± 3%. Besides, the “Percentage … parent compound” value amounted to 100 ± 2% in data set [4] (1 μM, unprocessed spike); 94 ± 6% in data set [4] (10 μM, Abiotic Control); 97 ± 10% in data set [4] (10 μM, Heat-inactivated s9); 55 ± 3% in data set [4] (10 μM, s9); 57 ± 2% in data set [4] (10 μM, s9 & glucuronidase); 54 ± 1% in data set [4] (10 μM, s9 & sulfatase). Moreover, the “Percentage … parent compound” value in data set [4] (setting [7]) stood at 55 ± 4%; in data set [4] (10 μM, unprocessed spike) it was 100 ± 3%. Moreover, the “% Depletion” value is 0% in data set [4] (1 μM, Abiotic Control); 18% in data set [4] (1 μM, Heat-inactivated s9); 73% in data set [4] (1 μM, s9 & glucuronidase); 68% in data set [4] (setting [6]); 71% in data set [4] (1 μM, s9 & sulfatase); 73% in data set [4] (1 μM, s9). Further, the “% Depletion” value in data set [4] (10 μM, Abiotic Control) was found to be 6%; in data set [4] (10 μM, Heat-inactivated s9) it was 3%; in data set [4] (10 μM, s9 & glucuronidase) it was 43%; in data set [4] (setting [7]), 45%; in data set [4] (10 μM, s9 & sulfatase) it was 46%; in data set [4] (10 μM, s9), 45%. For the same compound, the “Percentage … Total” value in data set [4] (1 μM, unprocessed spike) is given as 100 ± 13%. The “Initial parent mass unaccounted for after quantifying suspected metabolites” value in data set [4] is on record as “approximately 20%”.
As for `CC(C)(C)c1ccc(OP(=O)(Oc2ccccc2)Oc2ccccc2)cc1` [4tBPDPP, 4-tert-butylphenyl diphenyl phosphate], the “Parent converted to DPHP” value in data set [5] (2 μM, 100-min incubation) is 41%. Moreover, the “Depletion rate, slope, first-order kinetics” value in data set [3] (1 μM dose) is −0.013 ln[nmol]/min/mg protein; in data set [3] (10 μM dose), −0.0013 ln[nmol]/min/mg protein. The “Depletion rate, slope, zero-order kinetics” value in data set [3] (1 μM dose) was −0.031 nmol/min/mg protein; in data set [3] (10 μM dose), −0.082 nmol/min/mg protein. For the same compound, the “Percentage … parent compound” value in data set [4] (1 μM, Abiotic Control) is listed as 84 ± 8%; in data set [4] (1 μM, Heat-inactivated s9) it was 81 ± 6%; in data set [4] (1 μM, s9) it was 59 ± 11%; in data set [4] (1 μM, s9 & glucuronidase) it was 56 ± 5%; in data set [4] (1 μM, s9 & sulfatase), 61 ± 5%; in data set [4] (setting [6]) it was 60 ± 6%. Further, the “Percentage … parent compound” value in data set [4] (1 μM, unprocessed spike) was 92 ± 4%; in data set [4] (10 μM, Abiotic Control) it was 81 ± 1%; in data set [4] (10 μM, Heat-inactivated s9), 79 ± 11%; in data set [4] (10 μM, s9) it was 83 ± 2%; in data set [4] (10 μM, s9 & glucuronidase), 72 ± 5%; in data set [4] (10 μM, s9 & sulfatase), 73 ± 9%. The “Percentage … parent compound” value in data set [4] (setting [7]) amounted to 71 ± 6%; in data set [4] (10 μM, unprocessed spike), 89 ± 1%. In addition, the “% Depletion” value in data set [4] (1 μM, Abiotic Control) was 9%; in data set [4] (1 μM, Heat-inactivated s9) it was 12%; in data set [4] (1 μM, s9 & glucuronidase) it was 43%; in data set [4] (setting [6]), 39%; in data set [4] (1 μM, s9 & sulfatase) it was 39%; in data set [4] (1 μM, s9), 41%. Also, the “% Depletion” value worked out at 8% in data set [4] (10 μM, Abiotic Control); 12% in data set [4] (10 μM, Heat-inactivated s9); 23% in data set [4] (10 μM, s9 & glucuronidase); 25% in data set [4] (setting [7]); 23% in data set [4] (10 μM, s9 & sulfatase); 12% in data set [4] (10 μM, s9). Further, in data set [4] (1 μM, unprocessed spike), the “Percentage … Total” value was 100 ± 4%. In data set [4] (human, pH 7.4), the “Percent depletion lower than that of TPHP” value is reported as 30–45%.
`CC(C)c1ccccc1OP(=O)(Oc1ccccc1C(C)C)Oc1ccccc1C(C)C` [T2IPPP]: the “DPHP formation following incubation” value in data set [5] (ref Strobel et al., 2018) is listed as “not detected”.
As for `C=C(C)c1ccccc1OP(=O)(Oc1ccccc1)Oc1ccccc1` [mono-(o-isopropenylphenyl)-diphenyl phosphate], the “Detection in rabbit bile” value in data set [2] is on record as “detected”.
Turning to “hydroxy-o-isopropylphenyl diphenyl phosphate [Hydroxylated 2IPPDPP]”, the “Detection in human urine samples (number of samples out of 9)” value in data set [1] was “not detected”.
Same read-out and setting: under “mono-isopropenylphenyl diphenyl phosphate” stands 1.
